For 23 compounds, IC50 results are on record in patent US11370796B2, “Substituted pyrazoles as LRRK2 inhibitors” (OSCOTEC INC., priority 2017, dated 2022).

The experiment has as its target LRRK2 (leucine-rich repeat kinase 2) (Homo sapiens (Human), UniProt Q5S007). The experiment can be described thus: Inhibitory effect on LRRK2 in vitro (LANCE kinase assay). It counts as biochemical. Here is the method: The inhibitory effect of Compounds 1 to 62 on LRRK2 (leucine-rich repeat kinase 2) in vitro was measured. In the analysis of the results, IC50 values were calculated for a quantitative comparison of the in vitro activity.
After the compound was dissolved in 100% DMSO at 10 mM, it was serially diluted to the range of 1 μM to 10 μM using biochemical LRRK2 assay buffer (50 mM HEPES (4-(2-hydroxyethyl)-1-piperazineethanesulfonic acid) pH 7.5, 10 mM MgCl2, 1 mM EGTA (1,2-bis(o-aminophenoxy)ethane-N,N,N′,N′-tetraacetic acid), 2 mM DTT (dithiothreitol), and 0.01% TWEEN-20 (Aldrich)). Purified LRRK2 (CARNA BIOSCIENCES) was added to a black U-bottom 96-well microtiter plate containing 6 μl of the serially diluted compound, followed by incubation at room temperature for 30 minutes. For the kinase reaction, ATP and a substrate solution specific urea-polypeptide (ULIGHT™-poly TK, PerkinElimer) were added. The reaction was carried out at room temperature for 1 hour, and it was detected with an detection solution (brand name: LANCE™) containing EDTA. A LANCE detection solution containing europium-labeled antibody ([…] PT66) was added, followed by incubation at room temperature for 50 minutes, to terminate the kinase experiment. The phosphorylated substrate was detected by 665 nm emission measurement. IC50 values were calculated by a non-linear regression analysis using a Prism program (PRISM™ software) with reference to the absence of a kinase inhibitor.
As a comparative assay, a compound LRR2-IN-1, that known to be a reference compound for LRRK2 inhibitor, have also tested an inhibitory activity.
A general note: TR-FRET usually uses a lanthanide donor and a delayed reading to cut background.

[1] abbreviates: Table 1, class symbols, read-out: LRRK2 inhibition rate (IC50).
Where [2] appears, read: purified LRRK2, Table 6, read-out: IC50.

Where two headings read alike, the source gives them in different places.

Chain of LRRK2 (leucine-rich repeat kinase 2) (Q5S007 whole entry): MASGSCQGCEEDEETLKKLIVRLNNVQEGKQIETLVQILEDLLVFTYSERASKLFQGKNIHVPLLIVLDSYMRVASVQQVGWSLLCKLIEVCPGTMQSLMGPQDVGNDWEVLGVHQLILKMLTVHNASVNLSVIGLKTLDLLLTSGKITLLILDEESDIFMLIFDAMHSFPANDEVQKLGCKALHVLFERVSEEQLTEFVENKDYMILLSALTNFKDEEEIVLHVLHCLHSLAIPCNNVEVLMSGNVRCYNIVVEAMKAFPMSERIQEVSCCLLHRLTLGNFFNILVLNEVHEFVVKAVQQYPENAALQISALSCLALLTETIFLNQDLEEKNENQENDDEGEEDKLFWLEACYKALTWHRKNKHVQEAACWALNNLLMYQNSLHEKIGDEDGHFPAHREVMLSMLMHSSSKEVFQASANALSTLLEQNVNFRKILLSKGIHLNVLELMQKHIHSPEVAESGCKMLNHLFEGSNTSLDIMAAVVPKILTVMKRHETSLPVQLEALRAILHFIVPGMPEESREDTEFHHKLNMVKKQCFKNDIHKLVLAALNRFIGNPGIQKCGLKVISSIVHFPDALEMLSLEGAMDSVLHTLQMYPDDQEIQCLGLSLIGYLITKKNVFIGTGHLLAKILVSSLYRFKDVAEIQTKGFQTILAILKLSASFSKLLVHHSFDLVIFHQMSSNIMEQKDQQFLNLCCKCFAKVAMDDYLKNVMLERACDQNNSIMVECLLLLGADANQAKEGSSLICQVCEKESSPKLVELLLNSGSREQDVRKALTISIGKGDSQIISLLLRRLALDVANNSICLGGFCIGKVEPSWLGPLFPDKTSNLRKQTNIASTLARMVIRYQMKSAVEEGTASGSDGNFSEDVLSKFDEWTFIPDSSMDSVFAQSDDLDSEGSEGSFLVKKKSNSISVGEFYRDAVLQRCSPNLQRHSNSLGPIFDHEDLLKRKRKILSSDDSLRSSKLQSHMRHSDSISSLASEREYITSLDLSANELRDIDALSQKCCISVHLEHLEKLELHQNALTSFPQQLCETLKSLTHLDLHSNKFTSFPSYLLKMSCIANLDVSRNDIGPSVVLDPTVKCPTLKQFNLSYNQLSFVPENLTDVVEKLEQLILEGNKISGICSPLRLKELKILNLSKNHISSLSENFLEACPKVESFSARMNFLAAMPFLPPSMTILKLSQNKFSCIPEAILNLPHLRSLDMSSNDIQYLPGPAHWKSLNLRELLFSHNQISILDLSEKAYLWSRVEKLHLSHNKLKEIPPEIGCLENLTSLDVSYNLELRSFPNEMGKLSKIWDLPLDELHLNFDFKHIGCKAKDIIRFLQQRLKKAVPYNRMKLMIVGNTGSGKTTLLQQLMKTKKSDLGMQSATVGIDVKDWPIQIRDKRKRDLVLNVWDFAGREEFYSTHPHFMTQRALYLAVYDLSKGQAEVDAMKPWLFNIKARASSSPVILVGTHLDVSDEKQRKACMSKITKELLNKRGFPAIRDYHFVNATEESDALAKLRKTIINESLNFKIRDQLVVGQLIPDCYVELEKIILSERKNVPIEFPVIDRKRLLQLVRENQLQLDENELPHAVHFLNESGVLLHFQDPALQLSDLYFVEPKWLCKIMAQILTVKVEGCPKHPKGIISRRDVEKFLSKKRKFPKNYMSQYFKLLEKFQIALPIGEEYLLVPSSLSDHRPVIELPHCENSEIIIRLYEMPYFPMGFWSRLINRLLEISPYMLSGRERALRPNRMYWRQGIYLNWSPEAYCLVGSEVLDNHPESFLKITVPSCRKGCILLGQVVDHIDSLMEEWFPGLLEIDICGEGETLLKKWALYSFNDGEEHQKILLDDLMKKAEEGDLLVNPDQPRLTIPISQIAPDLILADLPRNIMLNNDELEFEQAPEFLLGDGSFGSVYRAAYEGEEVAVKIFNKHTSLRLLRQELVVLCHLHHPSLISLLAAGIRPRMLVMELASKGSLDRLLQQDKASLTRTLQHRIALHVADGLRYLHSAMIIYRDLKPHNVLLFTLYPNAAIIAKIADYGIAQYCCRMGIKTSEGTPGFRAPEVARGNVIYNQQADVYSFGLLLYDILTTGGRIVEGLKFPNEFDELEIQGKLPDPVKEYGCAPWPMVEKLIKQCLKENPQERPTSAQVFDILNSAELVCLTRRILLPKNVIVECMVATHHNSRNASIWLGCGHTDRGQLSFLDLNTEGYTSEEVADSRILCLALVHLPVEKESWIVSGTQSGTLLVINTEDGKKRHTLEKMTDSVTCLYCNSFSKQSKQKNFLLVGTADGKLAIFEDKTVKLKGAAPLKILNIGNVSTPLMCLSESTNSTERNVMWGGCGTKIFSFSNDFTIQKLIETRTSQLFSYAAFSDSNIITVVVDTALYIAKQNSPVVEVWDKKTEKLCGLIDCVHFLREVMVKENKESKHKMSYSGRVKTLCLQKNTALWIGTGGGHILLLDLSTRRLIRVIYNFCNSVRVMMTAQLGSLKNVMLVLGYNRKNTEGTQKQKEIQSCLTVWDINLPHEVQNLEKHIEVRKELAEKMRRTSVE

The term IC50 denotes the point on the concentration scale where inhibition reaches its midpoint. As to `CCn1cc(Cl)c2cnc(Nc3cn(C4CN(S(C)(=O)=O)C4)nc3Cl)nc21` [Compound 40, 5-chloro-N-(3-chloro-1-(1-(methylsulfonyl)azetidin-3-yl)-1H-pyrazol-4-yl)-7-ethyl-7H-pyrrolo[2,3-d]pyrimidin-2-amine], the IC50 under setting [1] was 10 to 100 nM.

As for `CCn1cc(Cl)c2cnc(Nc3cn(C4CCN(C(=O)C(C)(C)C)CC4)nc3Cl)nc21` [Compound 33, 1-(4-(3-chloro-4-(5-chloro-7-ethyl-7H-pyrrolo[2,3-d]pyrimidin-2-ylamino)-1H-pyrazol-1-yl)piperidin-1-yl)-2,2-dimethylpropane-1-one], the IC50 under setting [1] was under 10 nM and the half-inhibitory concentration (IC50) under setting [2] stood at 6.07 nM.

With `CCn1cc(Cl)c2cnc(Nc3cn([C@H]4CCN(S(C)(=O)=O)C4)nc3Cl)nc21` [Compound 37, (S)-5-chloro-N-(3-chloro-1-(1-(methylsulfonyl)pyrrolidin-3-yl)-1H-pyrazol-4-yl)-7-ethyl-7H-pyrrolo[2,3-d]pyrimidin-2-amine], the IC50 under setting [1] is 10 to 100 nM.

For `CC(C)n1cc(Nc2ncc3c(Cl)cn(C)c3n2)c(C(F)(F)F)n1` [Compound 9, 5-chloro-N-(1-isopropyl-3-(trifluoromethyl)-1H-pyrazol-4-yl)-7-methyl-7H-pyrrolo[2,3-d]pyrimidin-2-amine], the concentration for half-maximal inhibition (IC50) under setting [1] is 100 to 1000 nM.

Take `CCn1nc(Cl)c2cnc(Nc3cn(C4CN(C(=O)C5CC5)C4)nc3Cl)nc21` [Compound 60, (3-(3-chloro-4-(3-chloro-1-ethyl-1H-pyrazolo[3,4-d]pyrimidin-6-ylamino)-1H-pyrazol-1-yl)azetidin-1-yl)(cyclopropyl)methanone]: under setting [1], the IC50 lay within 10 to 100 nM.

As to `CCn1cc(Cl)c2cnc(Nc3cnn(C4CCN(C5COC5)CC4)c3Cl)nc21` [Compound 28, 5-chloro-N-(5-chloro-1-(1-(oxetan-3-yl)piperidin-4-yl)-1H-pyrazol-4-yl)-7-ethyl-7H-pyrrolo[2,3-d]pyrimidin-2-amine], the half-maximal inhibitory concentration (IC50) under setting [1] was under 10 nM and the 50% inhibitory concentration (IC50) under setting [2] was found to be 6.5 nM.

`CCn1cc(Cl)c2cnc(Nc3cn(C4CCN(C(=O)N5CCN(C)CC5)CC4)nc3Cl)nc21` [Compound 32, (4-(3-chloro-4-(5-chloro-7-ethyl-7H-pyrrolo[2,3-d]pyrimidin-2-ylamino)-1H-pyrazol-1-yl)piperidin-1-yl)(4-methylpiperazin-1-yl)methanone]: the IC50 is, setting by setting: under setting [1], under 10 nM; under setting [2], 2.5 nM.

For the compound `CCn1nc(Cl)c2cnc(Nc3cn(C4CCCN(S(C)(=O)=O)CC4)nc3Cl)nc21` (centres unmarked) [Compound 51, 3-chloro-N-(3-chloro-1-(1-(methylsulfonyl)azepan-4-yl)-1H-pyrazol-4-yl)-1-ethyl-1H-pyrazolo[3,4-d]pyrimidin-6-amine], the IC50 by setting is: under setting [1], under 10 nM; under setting [2], 4.75 nM.

On to `CC(C)n1cc(Nc2ncc3c(Cl)cn(C(C)C)c3n2)c(Cl)n1` [Compound 7, 5-chloro-N-(3-chloro-1-isopropyl-1H-pyrazol-4-yl)-7-isopropyl-7H-pyrrolo[2,3-d]pyrimidin-2-amine], for which the half-maximal inhibitory concentration (IC50) under setting [1] is 10 to 100 nM.

Turning to `CCn1cc(Cl)c2cnc(Nc3cn(C4CCCN(S(C)(=O)=O)CC4)nc3Cl)nc21` (centres unmarked) [Compound 42, 5-chloro-N-(3-chloro-1-(1-(methylsulfonyl)azepan-4-yl)-1H-pyrazol-4-yl)-7-ethyl-7H-pyrrolo[2,3-d]pyrimidin-2-amine], the half-inhibitory concentration (IC50) under setting [1] was under 10 nM.

Take `CCn1cc(Cl)c2cnc(Nc3cn(C4CCN(C)CC4)nc3Cl)nc21` [Compound 17, 5-chloro-N-(3-chloro-1-(1-methylpiperidin-4-yl)-1H-pyrazol-4-yl)-7-ethyl-7H-pyrrolo[2,3-d]pyrimidin-2-amine]: the IC50 under setting [1] fell in the range of 10 to 100 nM.

As to `CCn1cc(Cl)c2cnc(Nc3cn([C@H]4CCN(C(=O)C5CCCC5)C4)nc3Cl)nc21` [Compound 39, (S)-(3-(3-chloro-4-(5-chloro-7-ethyl-7H-pyrrolo[2,3-d]pyrimidin-2-ylamino)-1H-pyrazol-1-yl)pyrrolidin-1-yl)(cyclopentyl)methanone], under setting [1], the IC50 fell in the range of 10 to 100 nM.

For the compound `CCn1cc(Cl)c2cnc(Nc3cn(C4CCOCC4)nc3Cl)nc21` [Compound 18, 5-chloro-N-(3-chloro-1-(tetrahydro-2H-pyran-4-yl)-1H-pyrazol-4-yl)-7-ethyl-7H-pyrrolo[2,3-d]pyrimidin-2-amine], under setting [1], the IC50 lay in the range of 10 to 100 nM.

With `FC(F)(F)Cn1nc(Cl)c2cnc(Nc3cnn(C4CCN(C5COC5)CC4)c3Cl)nc21` [Compound 50, 3-chloro-N-(5-chloro-1-(1-(oxetan-3-yl)piperidin-4-yl)-1H-pyrazol-4-yl)-1-(2,2,2-trifluoroethyl)-1H-pyrazolo[3,4-d]pyrimidin-6-amine], the IC50 under setting [1] is 10 to 100 nM.

For `CCn1nc(Cl)c2cnc(Nc3cn(C4CCCN(C(=O)C5CC5)CC4)nc3Cl)nc21` (centres unmarked) [Compound 52, (4-(3-chloro-4-(3-chloro-1-ethyl-1H-pyrazolo[3,4-d]pyrimidin-6-ylamino)-1H-pyrazol-1-yl)azepan-1-yl)(cyclopropyl)methanone], the 50% inhibitory concentration (IC50) is under 10 nM under setting [1] and 5.6 nM under setting [2].

As to `CCn1cc(Cl)c2cnc(Nc3cnn(C)c3Cl)nc21` [Compound 6, 5-chloro-N-(5-chloro-1-methyl-1H-pyrazol-4-yl)-7-ethyl-7H-pyrrolo[2,3-d]pyrimidin-2-amine], under setting [1], the concentration for half-maximal inhibition (IC50) was 10 to 100 nM.

With `CCn1nc(Cl)c2cnc(Nc3cnn(C4CCN(C5COC5)CC4)c3Cl)nc21` [Compound 45, 3-chloro-N-(5-chloro-1-(1-(oxetan-3-yl)piperidin-4-yl)-1H-pyrazol-4-yl)-1-ethyl-1H-pyrazolo[3,4-d]pyrimidin-6-amine], the IC50 under setting [1] was 10 to 100 nM.

On to `CCn1nc(Cl)c2cnc(Nc3cnn(C4CN(C5COC5)C4)c3Cl)nc21` [Compound 61, 3-chloro-N-(5-chloro-1-(1-(oxetan-3-yl)azetidin-3-yl)-1H-pyrazol-4-yl)-1-ethyl-1H-pyrazolo[3,4-d]pyrimidin-6-amine], for which the IC50 under setting [1] fell in the range of 10 to 100 nM.

As to `Clc1cn(C2CC2)c2nc(Nc3cnn(C4CCN(C5COC5)CC4)c3Cl)ncc12` [Compound 29, 5-chloro-N-(5-chloro-1-(1-(oxetan-3-yl)piperidin-4-yl)-1H-pyrazol-4-yl)-7-cyclopropyl-7H-pyrrolo[2,3-d]pyrimidin-2-amine], the IC50 under setting [1] lay within 10 to 100 nM.

With `Cn1cc(Cl)c2cnc(Nc3cn(C4CCOCC4)nc3C(F)(F)F)nc21` [Compound 4, 5-chloro-7-methyl-N-(1-(tetrahydro-2H-pyran-4-yl)-3-(trifluoromethyl)-1H-pyrazol-4-yl)-7H-pyrrolo[2,3-d]pyrimidin-2-amine], the IC50 under setting [1] was in the range of 100 to 1000 nM.

For `CCn1nc(Cl)c2cnc(Nc3cn(C4CCN(S(=O)(=O)CC)CC4)nc3Cl)nc21` [Compound 59, 3-chloro-N-(3-chloro-1-(1-(ethylsulfonyl)piperidin-4-yl)-1H-pyrazol-4-yl)-1-ethyl-1H-pyrazolo[3,4-d]pyrimidin-6-amine], the IC50 is under 10 nM under setting [1] and 3.94 nM under setting [2].

As to `COc1nn(C(C)C)cc1Nc1ncc2c(Cl)cn(C)c2n1` [Compound 2, 5-chloro-N-(1-isopropyl-3-methoxy-1H-pyrazol-4-yl)-7-methyl-7H-pyrrolo[2,3-d]pyrimidin-2-amine], under setting [1], the IC50 was 10 to 100 nM.

For the compound `Cn1ncc(Nc2ncc3c(C(F)(F)F)cn(C)c3n2)c1Cl` [Compound 1, N-(5-chloro-1-methyl-1H-pyrazol-4-yl)-7-methyl-5-(trifluoromethyl)-7H-pyrrolo[2,3-d]pyrimidin-2-amine], under setting [1], the IC50 fell in the range of 100 to 1000 nM.
